This note sets out measurements from patent US6982353B2, “C2-disubstituted indan-1-ol compounds, their derivatives, processes for their preparation, and their use as pharmaceuticals” (Aventis Pharma Deutschland GmbH, priority 2001, dated 2006).

One series relates to female NMRI mice. Kind of series: Anorectic action: cumulative evaporated milk consumption after 24 h removal of feed. The format is in vivo. To be noted: dose 20 mg/kg (ip or po, route not specified). The method, then:
The anorectic action was tested on female NMRI mice. After removal of feed for 24 hours, the preparation to be tested was administered intraperitoneally (ip) or by gavage (po). The animals were housed singly and, with free access to drinking water, they were offered evaporated milk 30 minutes after administration of the preparation. The consumption of evaporated milk was determined and the general behavior of the animals was monitored every half an hour for 7 hours. The measured milk consumption was compared to that of vehicle-treated control animals.

Usually melting point stands for the temperature, or range, at which the solid turns liquid. With `CS(=O)(=O)C1(F)Cc2cc(Cl)ccc2C1O` (stereo not drawn) [Example 1, 5-Chloro-2-fluoro-2-methanesulfonylindan-1-ol], the melting point amounted to 101 °C. Also, the “Reduction in cumulative milk consumption as % of the control” value in the series on female NMRI mice (compared with untreated control animals) amounted to 46%. Moreover, the “cumulative milk consumption by treated animals” value with female NMRI mice (feed removed 24 h, milk offered 30 min after administration, monitored for 7 hours) is given as 5/2.06 ml.
